PMC6662551 (Clinical and Translational Science, 2019)
Where “and” joins values, the source holds several entries; their conditions need not be identical. Identical values can stand only once. Like-named read-outs stand apart in the source and are kept apart here. Values belong to the molecule of their own block, whether it stands above or below them.

Key:
[1] = type: in vivo, human; settings: for AUClast: 0.25-12 hour; for baseline (C0) level: 16 samples; for ratio of mean AUC in SLCO1B1 c.521‐CC to c.521TT: endogenous biomarker; for C0: plasma; for increase in plasma concentration, Cmax over baseline: pravastatin plus placebo, individuals homozygous c.521‐CC; for time of peak plasma level: two individuals c.521‐CC
OATP1B1 [2] = settings: c.521T>C carriers; cited from earlier work
[3] = for ratio of mean AUC0→12 in SLCO1B1 c.521CC and c.521TT: named peak only; for AUC(0-t): AUC0→12, text, pravastatin peak only
[4] = system: 3‐hydroxy‐3‐methylglutaryl coenzyme A reductase; settings: relative to pravastatin; cited from earlier work
OATP1B1 [5] = type: in vivo, human; settings: human, plasma, oral; for AUC(0-t): AUClast, 0.25-12 hour; for C0: C0, plasma, baseline
[6] = pravastatin + cyclosporine, CC (N = 2)
[7] = pravastatin + cyclosporine, TC (N = 6)
[8] = pravastatin + cyclosporine, TT (N = 8)
[9] = pravastatin + cyclosporine, all genotype (N = 16)
[10] = pravastatin + placebo, CC (N = 2)
[11] = pravastatin + placebo, TC (N = 6)
[12] = pravastatin + placebo, TT (N = 8)
[13] = pravastatin + placebo, all genotype (N = 16)
[14] = 12 hours after first CsA dose, pravastatin + cyclosporine, all genotype
[15] = baseline, pravastatin + placebo, all genotype
[16] = pravastatin + cyclosporine (N = 16)

Molecule: coproporphyrin I [CP‐I]
AUClast [1, 6]: 27.6 ± 8.4 nM·h
AUClast [1, 7]: 16.5 ± 5.7 nM·h
AUClast [1, 8]: 11.8 ± 2.3 nM·h
AUClast [1, 9]: 15.5 ± 6.7 nM·h
AUClast [1, 10]: 17.8 ± 3.2 nM·h
AUClast [1, 11]: 9.8 ± 3.3 nM·h
AUClast [1, 12]: 6.9 ± 1.2 nM·h
AUClast [1, 13]: 9.4 ± 4.2 nM·h
baseline (C0) level [1]: below the levels of quantification for 12 of 16 samples
AUClast fold increase, pravastatin plus CsA over pravastatin plus placebo ([1]; CC (N = 2)): 1.5 fold
Cavg fold increase, pravastatin plus CsA over pravastatin plus placebo ([1]; CC (N = 2)): 1.6 fold
AUClast fold increase, pravastatin plus CsA over pravastatin plus placebo ([1]; TC (N = 6)): 1.7 fold
Cavg fold increase, pravastatin plus CsA over pravastatin plus placebo ([1]; TC (N = 6)): 2.0 fold
AUClast fold increase, pravastatin plus CsA over pravastatin plus placebo ([1]; TT (N = 8)): 1.7 fold
Cavg fold increase, pravastatin plus CsA over pravastatin plus placebo ([1]; TT (N = 8)): 1.9 fold
Cavg fold increase, pravastatin plus CsA over pravastatin plus placebo ([1]; all genotype): 1.9 fold
Cmax fold increase, pravastatin plus CsA over pravastatin plus placebo ([1]; all genotype (N = 16)): 2.2 fold
ratio of mean AUC in SLCO1B1 c.521‐CC to c.521TT [1]: 2.6 fold
C0 [1, 14]: BLOQ in most samples
C0 [1, 15]: BLOQ in most samples
Cmax [1, 16]: 2.16 ± 0.71 nM
Cavg [1, 6]: 2.50 ± 0.68 nM
Cavg [1, 7]: 1.67 ± 0.33 nM
Cavg [1, 8]: 1.15 ± 0.28 nM
Cavg [1, 9]: 1.51 ± 0.56 nM
Cmax ([1]; pravastatin + placebo (N = 16)): 1.04 ± 0.45 nM
Cavg [1, 11]: 0.88 ± 0.26 nM
Cavg [1, 12]: 0.6 ± 0.1 nM
Cavg [1, 13]: 0.83 ± 0.36 nM and 0.83 ± 0.36****^, ^b nM

Molecule: CC(C)c1nc(N(C)S(C)(=O)=O)nc(-c2ccc(F)cc2)c1/C=C/[C@@H](O)C[C@@H](O)CC(=O)O [rosuvastatin]
increase in plasma levels in individuals with the OATP1B1‐Val174Ala variant (OATP1B1 [2]): 1.5–3 fold

Molecule: O=C(O)CCCCCCCCCCCCCCC(=O)O [HDA, hexadecanedioic acid]
AUC(0-t) (OATP1B1 [5]; [6]): 1.68 µM·h
AUC(0-t) (OATP1B1 [5]; [7]): 0.853 ± 0.303 µM·h
AUC(0-t) (OATP1B1 [5]; [8]): 1.07 µM·h
AUC(0-t) (OATP1B1 [5]; [10]): 1.45 µM·h
AUC(0-t) (OATP1B1 [5]; [11]): 0.506 ± 0.116 µM·h
C0 (OATP1B1 [5]; pravastatin + placebo, CC): 114 ± 47.5 nM
C0 (OATP1B1 [5]; pravastatin + placebo, TC): 43.1 ± 13.4 nM
C0 (OATP1B1 [5]; pravastatin + placebo, TT): 52 ± 29.6 nM
AUClast [1, 9]: 1,070 ± 357 nM·hour
AUClast [1, 12]: 557 ± 161 nM·h
AUClast [1, 13]: 649 ± 346 nM·h
C0 fold increase, pravastatin plus CsA over pravastatin plus placebo ([1]; CC): 1.0 fold
AUClast fold increase, pravastatin plus CsA over pravastatin plus placebo ([1]; CC (N = 2)): 1.2 fold
Cavg fold increase, pravastatin plus CsA over pravastatin plus placebo ([1]; CC (N = 2)): 1.2 fold
C0 fold increase, pravastatin plus CsA over pravastatin plus placebo ([1]; TC): 1.6 fold
AUClast fold increase, pravastatin plus CsA over pravastatin plus placebo ([1]; TC (N = 6)): 1.7 fold
Cavg fold increase, pravastatin plus CsA over pravastatin plus placebo ([1]; TC (N = 6)): 2.0 fold
C0 fold increase, pravastatin plus CsA over pravastatin plus placebo ([1]; TT): 1.7 fold
AUClast fold increase, pravastatin plus CsA over pravastatin plus placebo ([1]; TT (N = 8)): 2.0 fold
Cavg fold increase, pravastatin plus CsA over pravastatin plus placebo ([1]; TT (N = 8)): 2.2 fold
AUClast fold increase, pravastatin plus CsA over pravastatin plus placebo ([1]; all genotype): 1.8 fold
Cavg fold increase, pravastatin plus CsA over pravastatin plus placebo ([1]; all genotype): 2.0 fold
Cmax fold increase, pravastatin plus CsA over pravastatin plus placebo ([1]; all genotype (N = 16)): 2.1 fold
ratio of mean AUC in SLCO1B1 c.521‐CC to c.521TT [1]: 2.6 fold
C0 [1, 14]: 84 ± 33 nM
C0 [1, 15]: 60.1 ± 37 nM
Cmax [1, 16]: 155 ± 55.1 nM
Cavg [1, 6]: 149 ± 5.0 nM
Cavg [1, 7]: 86.9 ± 33.0 nM
Cavg [1, 8]: 98.5 ± 27.8 nM
Cavg [1, 9]: 100 ± 33.3 nM
Cmax ([1]; pravastatin + placebo (N = 16)): 90.6 ± 77.3 nM
Cavg [1, 10]: 135 ± 46.6 nM
Cavg [1, 11]: 44.0 ± 11.5 nM
Cavg [1, 12]: 46.1 ± 14.3 nM
Cavg [1, 13]: 56.4 ± 35.1 nM and 56.4 ± 35.1****^, ^b nM
increase in plasma concentration, Cmax over baseline [1]: at least twofold
time of peak plasma level [1]: around 3 hours and 3.0 hours

Molecule: CCOc1cc(CC(=O)N[C@@H](CC(C)C)c2ccccc2N2CCCCC2)ccc1C(=O)O [repaglinide]
increase in plasma levels in individuals with the OATP1B1‐Val174Ala variant (OATP1B1 [2]): 1.5–3 fold

Second part, led by results:

ratio of mean AUC0→12 in SLCO1B1 c.521CC and c.521TT [3]: 1.2 fold
Molecule: 3′α‐hydroxy‐pravastatin
inhibitory activity relative to the parent compound [4]: one‐tenth to one‐fortieth

Tmax ([3]; human, plasma, oral, 40 mg): 1.5 h
AUC(0-t) ([3]; human, plasma, oral, 40 mg, pravastatin + placebo, TC): 48 ± 23 ng·h/mL
AUC(0-t) ([3]; human, plasma, oral, 40 mg, pravastatin + placebo, c.521‐TT): 43 ± 15 ng·h/mL
CL/F ([3]; human, plasma, oral, pravastatin + cyclosporine, CC (N = 3)): 10.7 mL/min/kg
CL/F ([3]; human, plasma, oral, pravastatin + cyclosporine, TC (N = 8)): 24.2 mL/min/kg
CL/F ([3]; human, plasma, oral, pravastatin + cyclosporine, TT (N = 9)): 24.5 mL/min/kg
CL/F ([3]; human, plasma, oral, pravastatin + cyclosporine, all genotype): 22.3 mL/min/kg
CL/F ([3]; human, plasma, oral, pravastatin + placebo, CC (N = 3)): 27.5 mL/min/kg
CL/F ([3]; human, plasma, oral, pravastatin + placebo, TC (N = 8)): 90.3 mL/min/kg
CL/F ([3]; human, plasma, oral, pravastatin + placebo, TT (N = 9)): 102 mL/min/kg
CL/F ([3]; human, plasma, oral, pravastatin + placebo, all genotype): 86.2 mL/min/kg
ratio of mean AUC0→12 in SLCO1B1 c.521CC and c.521TT [3]: 3.6 fold
Cmax ([3]; named peak only (not combined), pravastatin + placebo, TC (N=8)): 31 ± 19 ng/mL
V/F ([3]; pravastatin + cyclosporine, CC (N = 3)): 0.85 ± 0.70 L/kg
V/F ([3]; pravastatin + cyclosporine, TC (N = 8)): 1.52 ± 0.54 L/kg
V/F ([3]; pravastatin + cyclosporine, TT (N = 9)): 1.92 ± 1.34 L/kg
V/F ([3]; pravastatin + cyclosporine, all genotype): 1.60 ± 1.02 L/kg
V/F ([3]; pravastatin + placebo, CC (N = 3)): 1.94 ± 1.37 L/kg
V/F ([3]; pravastatin + placebo, TC (N = 8)): 9.49 ± 9.08 L/kg
V/F ([3]; pravastatin + placebo, TT (N = 9)): 9.56 ± 8.74 L/kg
V/F ([3]; pravastatin + placebo, all genotype): 8.39 ± 8.39 L/kg
Molecule: CC[C@H](C)C(=O)O[C@H]1C[C@H](O)C=C2C=C[C@H](C)[C@H](CC[C@@H](O)C[C@@H](O)CC(=O)O)[C@H]21 [pravastatin]

AUC(0-t) (OATP1B1 [5]; [6]): 1.55 µM·h
AUC(0-t) (OATP1B1 [5]; [7]): 0.652 ± 0.246 µM·h
AUC(0-t) (OATP1B1 [5]; [8]): 0.927 ± 0.282 µM·h
AUC(0-t) (OATP1B1 [5]; [10]): 1.8 µM·h
AUC(0-t) (OATP1B1 [5]; [11]): 0.386 ± 0.084 µM·h
C0 (OATP1B1 [5]; pravastatin + placebo, CC): 131 ± 48.9 nM
C0 (OATP1B1 [5]; pravastatin + placebo, TC): 31.3 ± 5 nM
C0 (OATP1B1 [5]; pravastatin + placebo, TT): 44 ± 24.5 nM
AUClast [1, 9]: 902 ± 378 nM·h
AUClast [1, 12]: 448 ± 153 nM·h
AUClast [1, 13]: 593 ± 489 nM·h
C0 fold increase, pravastatin plus CsA over pravastatin plus placebo ([1]; CC): 0.7 fold
AUClast fold increase, pravastatin plus CsA over pravastatin plus placebo ([1]; CC (N = 2)): 0.9 fold
Cavg fold increase, pravastatin plus CsA over pravastatin plus placebo ([1]; CC (N = 2)): 0.9 fold
C0 fold increase, pravastatin plus CsA over pravastatin plus placebo ([1]; TC): 1.4 fold
AUClast fold increase, pravastatin plus CsA over pravastatin plus placebo ([1]; TC (N = 6)): 1.7 fold
Cavg fold increase, pravastatin plus CsA over pravastatin plus placebo ([1]; TC (N = 6)): 1.8 fold
C0 fold increase, pravastatin plus CsA over pravastatin plus placebo ([1]; TT): 2.1 fold
AUClast fold increase, pravastatin plus CsA over pravastatin plus placebo ([1]; TT (N = 8)): 2.2 fold
Cavg fold increase, pravastatin plus CsA over pravastatin plus placebo ([1]; TT (N = 8)): 2.5 fold
Cavg fold increase, pravastatin plus CsA over pravastatin plus placebo ([1]; all genotype): 2.0 fold
Cmax fold increase, pravastatin plus CsA over pravastatin plus placebo ([1]; all genotype (N = 16)): 2.2 fold
ratio of mean AUC in SLCO1B1 c.521‐CC to c.521TT [1]: 4.0 fold
C0 [1, 14]: 68 ± 26 nM
C0 [1, 15]: 55 ± 44 nM
Cmax [1, 16]: 149 ± 71 nM
Cavg [1, 6]: 144 ± 13.9 nM
Cavg [1, 7]: 64.5 ± 26.4 nM
Cavg [1, 8]: 87.6 ± 29.5 nM
Cavg [1, 9]: 86.0 ± 35.8 nM
Cmax ([1]; pravastatin + placebo (N = 16)): 94.7 ± 118 nM
Cavg [1, 10]: 171 ± 53.7 nM
Cavg [1, 11]: 34.6 ± 10.4 nM
Cavg [1, 12]: 38 ± 13.7 nM
increase in plasma concentration, Cmax over baseline [1]: at least twofold
time of peak plasma level [1]: around 3 hours and 3.0 hours
Molecule: O=C(O)CCCCCCCCCCCCC(=O)O [TDA, tetradecanedioic acid]
Cavg [1, 13]: 53.3 ± 49.3 nM and 53.3 ± 49.3****^, ^b nM

AUClast [1, 6]: 2.22 ± 0.13 nM·h
AUClast [1, 7]: 1.65 ± 0.60 nM·h
AUClast [1, 8]: 1.56 ± 0.24 nM·h
AUClast [1, 9]: 1.68 ± 0.44 nM·h
AUClast [1, 10]: 1.7 ± 0.013 nM·h
AUClast [1, 11]: 1.0 ± 0.68 nM·h
AUClast [1, 12]: 1.2 ± 0.17 nM·h
AUClast fold increase, pravastatin plus CsA over pravastatin plus placebo ([1]; CC (N = 2)): 1.2 fold
Cavg fold increase, pravastatin plus CsA over pravastatin plus placebo ([1]; CC (N = 2)): 1.3 fold
AUClast fold increase, pravastatin plus CsA over pravastatin plus placebo ([1]; TC (N = 6)): 3.0 fold
Cavg fold increase, pravastatin plus CsA over pravastatin plus placebo ([1]; TC (N = 6)): 1.7 fold
AUClast fold increase, pravastatin plus CsA over pravastatin plus placebo ([1]; TT (N = 8)): 1.3 fold
Cavg fold increase, pravastatin plus CsA over pravastatin plus placebo ([1]; TT (N = 8)): 1.4 fold
AUClast fold increase, pravastatin plus CsA over pravastatin plus placebo ([1]; all genotype): 1.9 fold and 1.68 ± 0.44 (1.9) fold
Cavg fold increase, pravastatin plus CsA over pravastatin plus placebo ([1]; all genotype): 1.5 fold
Cmax fold increase, pravastatin plus CsA over pravastatin plus placebo ([1]; all genotype (N = 16)): 1.7 fold
C0 [1, 14]: BLOQ in most samples
C0 [1, 15]: BLOQ in most samples
Cmax [1, 16]: 0.24 ± 0.05 nM
Cavg [1, 6]: 0.21 ± 0.008 nM
Cavg [1, 7]: 0.18 ± 0.02 nM
Cavg [1, 8]: 0.15 ± 0.03 nM
Cavg [1, 9]: 0.17 ± 0.03 nM
Cmax ([1]; pravastatin + placebo (N = 16)): 0.15 ± 0.039 nM
Cavg [1, 10]: 0.15 ± 0.004 nM
Cavg [1, 11]: 0.11 ± 0.03 nM
Cavg [1, 12]: 0.11 ± 0.02 nM
Molecule: coproporphyrin III [CP‐III]
baseline (C0) level [1]: below the levels of quantification for 12 of 16 samples
